From US20110015067A1, “Herbicidal Compositions Comprising Pyroxasulfone” (BASF SE, priority 2008, published 2011)

Tests used:
[1] = test system: BRAPL (Brachiaria plantaginea); test: pre-emergence greenhouse test; assay type: in vivo; settings: for observed activity in % destruction: pre-emergence
In short: (§1)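 Herbicide A and safener were formulated as 10% by weight suspension concentrates, herbicide B as commercial product, all diluted in water and sprayed onto soil just after sowing. Percent damage compared with untreated controls was recorded 8 and/or 20 DAT.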

PHBPU (Ipomoea purpurea) = test: pre-emergence greenhouse test; assay type: in vivo; settings: for observed activity in % destruction: pre-emergence, 50 g ai/ha
In short: as §1

[2] = BRAPL pre-emergence 6.25 g ai/ha
[3] = BRAPL pre-emergence 12.5 g ai/ha

## Cn1nc(C(F)(F)F)c(CS(=O)(=O)C2=NOC(C)(C)C2)c1OC(F)F [pyroxasulfone, 3-[5-(difluoromethoxy)-1-methyl-3-(trifluoromethyl)pyrazol-4-ylmethylsulfonyl]-4,5-dihydro-5,5-dimethyl-1,2-oxazole]
[1]; [2]
  observed % destruction 8 DAT: 30%
  observed % destruction 20 DAT: 70%
[1]; [3]
  observed % destruction 8 DAT: 35%
  observed % destruction 20 DAT: 80%
[1]; BRAPL pre-emergence 25 g ai/ha
  observed % destruction 8 DAT: 60%
  observed % destruction 20 DAT: 95%
[1]; BRAPL pre-emergence 50 g ai/ha
  observed % destruction 20 DAT: 98%
[1]; 12.5 g ai/ha, 8 DAT
  observed activity in % destruction: 35%
[1]; 12.5 g ai/ha, 20 DAT
  observed activity in % destruction: 80%
[1]; 25 g ai/ha, 8 DAT
  observed activity in % destruction: 60%
[1]; 25 g ai/ha, 20 DAT
  observed activity in % destruction: 95%
[1]; 50 g ai/ha, 8 DAT
  observed activity in % destruction: 70%
[1]; 50 g ai/ha, 20 DAT
  observed activity in % destruction: 98%
PHBPU (Ipomoea purpurea); PHBPU pre-emergence 6.25 g ai/ha
  observed % destruction 20 DAT: 0%
PHBPU (Ipomoea purpurea); PHBPU pre-emergence 12.5 g ai/ha
  observed % destruction 20 DAT: 55%
PHBPU (Ipomoea purpurea); PHBPU pre-emergence 50 g ai/ha
  observed % destruction 20 DAT: 75%
PHBPU (Ipomoea purpurea); 8 DAT
  observed activity in % destruction: 30%
PHBPU (Ipomoea purpurea); 20 DAT
  observed activity in % destruction: 75%
